From patent publication US20110207796A1, “ALPHA-SYNUCLEIN KINASE” (Elan Pharma International Limited, priority 2008, published 2011) come the findings set out here.

One may read the EC50 as the concentration that produces a half-maximal response. In general, IC50 refers to the concentration that inhibits the measured activity by half.

Read-outs that look alike come from different tables or passages of the source. Where only a bound is given, the exact number is not on record here.

The target of one experiment is T1, PLK3 (Homo sapiens, UniProt Q9H4B4).
T1 construct: expressed in transfected cells; host or cells: HEK-293
T1 sequence (Q9H4B4 whole entry): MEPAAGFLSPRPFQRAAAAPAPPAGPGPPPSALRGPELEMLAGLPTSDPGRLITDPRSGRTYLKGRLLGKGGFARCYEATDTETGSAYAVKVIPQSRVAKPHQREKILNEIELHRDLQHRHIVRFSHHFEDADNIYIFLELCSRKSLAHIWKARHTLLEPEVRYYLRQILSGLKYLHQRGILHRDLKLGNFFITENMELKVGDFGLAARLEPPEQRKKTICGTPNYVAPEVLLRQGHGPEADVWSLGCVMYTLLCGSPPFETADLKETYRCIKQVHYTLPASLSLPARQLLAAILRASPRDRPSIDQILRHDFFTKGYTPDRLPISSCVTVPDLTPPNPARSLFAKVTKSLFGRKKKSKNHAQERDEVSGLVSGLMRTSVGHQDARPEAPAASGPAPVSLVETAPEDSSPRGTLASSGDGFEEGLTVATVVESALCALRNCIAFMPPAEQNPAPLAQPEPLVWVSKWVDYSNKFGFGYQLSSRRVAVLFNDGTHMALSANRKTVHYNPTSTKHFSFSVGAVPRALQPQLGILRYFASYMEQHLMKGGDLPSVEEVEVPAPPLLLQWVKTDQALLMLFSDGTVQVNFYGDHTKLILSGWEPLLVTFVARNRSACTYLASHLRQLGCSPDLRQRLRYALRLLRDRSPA
Description: HEK-293 cells overexpressing synuclein and PLK3, inhibition of synuclein phosphorylation. The class given is cell-based. As to the method:
(§1) All vectors had the sequence coding for the protein of interest. Transfection was accomplished using Lipofectamine 2000 (Invitrogen, Carlsbad, Calif.) with 0.08 μg vector. Cells were washed and harvested 48 hours post-transfection. A Micro BCA (Pierce) total protein assay and total synuclein and phospho-synuclein ELISAs were performed on each plate of treated cells.

The test system of experiment [1] is endogenous kinase (synuclein phosphorylation). Description: HEK-293 cells overexpressing synuclein with empty vector, inhibition of synuclein phosphorylation. It is filed as cell-based, human. The conditions noted are these: for EC50: Homo sapiens. The protocol:
as §1

In another experiment the target is T2, PLK1 (Homo sapiens, UniProt P53350).
T2 construct: expressed in transfected cells; host or cells: HEK-293
T2 sequence (P53350 whole entry): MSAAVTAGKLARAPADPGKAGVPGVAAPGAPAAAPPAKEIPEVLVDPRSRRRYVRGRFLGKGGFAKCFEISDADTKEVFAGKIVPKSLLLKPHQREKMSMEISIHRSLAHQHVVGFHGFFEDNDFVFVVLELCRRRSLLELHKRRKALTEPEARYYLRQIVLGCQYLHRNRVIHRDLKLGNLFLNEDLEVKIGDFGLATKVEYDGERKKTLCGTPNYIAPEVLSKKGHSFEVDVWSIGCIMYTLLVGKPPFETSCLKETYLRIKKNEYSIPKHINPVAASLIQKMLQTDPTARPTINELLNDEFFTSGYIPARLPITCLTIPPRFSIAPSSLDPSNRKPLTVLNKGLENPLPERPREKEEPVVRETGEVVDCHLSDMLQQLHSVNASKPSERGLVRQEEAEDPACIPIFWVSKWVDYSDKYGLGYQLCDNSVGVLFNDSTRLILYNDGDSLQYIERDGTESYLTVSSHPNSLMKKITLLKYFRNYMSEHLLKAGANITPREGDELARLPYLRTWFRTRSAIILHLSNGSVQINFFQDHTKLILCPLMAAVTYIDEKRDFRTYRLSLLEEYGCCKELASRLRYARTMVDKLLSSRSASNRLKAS
The experiment is described as follows: HEK-293 cells overexpressing synuclein and PLK1, inhibition of synuclein phosphorylation. The class given is cell-based. As to the method: as §1

The test system of experiment [2] is synuclein phosphorylation by endogenous kinase. Description: kinase inhibitor treatment of rat ventral mesencephalon (RVM) cultures transduced with E46K-synuclein. The class given is cell-based. As to the method:
(§2) Rat Ventral Mesencephalon (RVM) cultures were prepared from E15 Wistar rats. The RVM cultures were cultured for 2 days and transduced with 0.75 MOI E46K-Synuclein lentivirus alone, or 0.75 MOI E46K-Synuclein lentivirus plus 0.75 MOI ca-PLK2 lentivirus. […] Transduced cultures were maintained in neuronal media with B27/1% FBS and 37° C./5% CO2 until treated with inhibitors. On DIV 17 (which corresponds to 15 days after viral transduction of the cultures) cells were treated with inhibitors for two hours. Cells were then harvested as detailed above in neuronal media with B27/1% FBS. A Micro BCA (Pierce) total protein assay, and total synuclein and phospho-synuclein ELISAs were performed on each plate of treated cells using standard methods.

Experiment [3] relates to synuclein phosphorylation by constitutively active PLK2 (caPLK2). The experiment is described as follows: kinase inhibitor treatment of RVM cultures transduced with E46K-synuclein plus ca-PLK2. The class given is cell-based. The conditions noted are these: rat ventral mesencephalon cultures. As to the method: as §2
Experiment [4] has as its target T3, PLK2 (Homo sapiens, UniProt Q9NYY3). The experiment is described as follows: in vitro biochemical assay of PLK2-driven synuclein phosphorylation. As to the method: The reaction was incubated at 37° C. The activity was analyzed by autoradiography.
In vitro biochemical assays using each of the four PLK family members as the kinase to phosphorylate synuclein were conducted.

Experiment [5] has as its system synuclein phosphorylation by endogenous kinase. The experiment is described as follows: kinase inhibitor treatment of mouse cortical cultures (MCC), total and phospho-synuclein ELISA. It is filed as cell-based. The protocol:
Mouse cortical cultures from fetal (i) Swiss-Webster, (ii) C56BL/6 WT and (iii) C56BL/6 E46K-Synuclein Trangenic mice were prepared and maintained in B27/DMEM/1% Penicillin-Streptomycin at 37° C./10% CO2 for three to fourteen days and then treated with kinase inhibitors.
Cultures were exposed to inhibitors for two hours in B27/DMEM/1% Penicillin-Streptomycin. Cells were immediately washed in 100 μL of PBS plus Mg^2+ and Ca^2+, and harvested in ice-cold CEB minus EGTA plus protease inhibitors, frozen on dry ice and stored at −80° C. until processed. A Micro BCA (Pierce) total protein assay, and total synuclein and phospho-synuclein ELISAs were performed on each plate of treated cells using standard methods.
Background: An ELISA detects its analyte on a solid surface through an enzyme-linked reagent.

Experiment [6] addresses T3, PLK2. The experiment is described as follows: HEK-293 cells overexpressing synuclein and PLK2, inhibition of synuclein phosphorylation. The class given is cell-based. Also noted: expressed in transfected cells; host or cells: HEK-293. As to the method:
as §1

Experiment [7] has as its system synuclein phosphorylation (serine-129). The experiment is described as follows: inhibition of synuclein phosphorylation across the cellular paradigms (primary neuronal cultures and 293 cells). It is filed as cell-based, mouse, rat and human. The settings on record: Homo sapiens, HEK293, read-out: EC50 inhibition of synuclein phosphorylation, cellular paradigms.
Another experiment deals with T4, PLK4 (Homo sapiens, UniProt O00444).
T4 sequence (O00444 1-970): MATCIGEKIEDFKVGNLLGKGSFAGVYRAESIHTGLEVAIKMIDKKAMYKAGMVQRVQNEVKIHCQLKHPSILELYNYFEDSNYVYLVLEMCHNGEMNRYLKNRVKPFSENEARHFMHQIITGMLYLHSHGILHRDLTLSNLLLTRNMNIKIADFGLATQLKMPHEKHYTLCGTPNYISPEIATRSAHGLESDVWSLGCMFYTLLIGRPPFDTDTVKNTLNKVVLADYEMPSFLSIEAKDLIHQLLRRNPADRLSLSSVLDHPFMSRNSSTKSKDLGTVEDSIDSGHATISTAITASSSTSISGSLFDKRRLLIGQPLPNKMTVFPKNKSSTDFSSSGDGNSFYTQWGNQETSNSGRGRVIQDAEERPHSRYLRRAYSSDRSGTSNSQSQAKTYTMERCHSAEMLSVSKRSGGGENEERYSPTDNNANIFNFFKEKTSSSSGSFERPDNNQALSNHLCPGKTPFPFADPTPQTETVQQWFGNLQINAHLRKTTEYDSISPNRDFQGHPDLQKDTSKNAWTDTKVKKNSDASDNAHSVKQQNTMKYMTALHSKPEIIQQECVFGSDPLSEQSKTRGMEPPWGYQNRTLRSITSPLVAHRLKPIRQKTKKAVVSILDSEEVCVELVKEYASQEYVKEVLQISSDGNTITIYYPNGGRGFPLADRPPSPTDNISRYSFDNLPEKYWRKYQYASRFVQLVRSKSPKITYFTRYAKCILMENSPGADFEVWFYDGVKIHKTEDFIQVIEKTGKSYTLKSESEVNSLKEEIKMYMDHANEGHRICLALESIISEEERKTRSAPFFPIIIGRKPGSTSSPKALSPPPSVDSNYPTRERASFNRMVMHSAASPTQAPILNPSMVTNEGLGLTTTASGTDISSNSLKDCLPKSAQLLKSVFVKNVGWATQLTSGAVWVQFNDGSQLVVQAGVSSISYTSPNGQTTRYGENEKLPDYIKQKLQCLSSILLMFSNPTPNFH
Description: HEK-293 cells overexpressing synuclein and PLK4, inhibition of synuclein phosphorylation. It is filed as cell-based. The settings on record: HEK-293, Table 22. As to the method: as §1

The subject of the next experiment is brain p-synuclein. The experiment is described as follows: synuclein phosphorylation in brains of FVB mice treated with kainic acid (immunohistochemistry, ELISA). The class given is in vivo, mouse. The conditions noted are these: immunohistochemistry and ELISA. The text has this: This example describes up regulation of phosphorylated α-synuclein (p-synuclein) in wildtype mice after kainic acid administration. Several articles have reported that excitotoxicity can result in an upregulation of polo-like kinases. […] Thus the kainic acid model provides better understanding the involvement of the PLK2 p-synuclein pathway in neurodegeneration and may be used in screening assays of the invention.

The next experiment deals with panel of 260 kinases. The experiment is described as follows: screen against a panel of 260 kinases at 10 uM. The class given is biochemical.
[8] abbreviates: Swiss-Webster mouse cortical cultures, read-out: EC50, Swiss-Webster MCC.
Setting [9] is: WT mouse cortical cultures, read-out: EC50, WT-MCC.

T3 sequence (Q9NYY3 whole entry): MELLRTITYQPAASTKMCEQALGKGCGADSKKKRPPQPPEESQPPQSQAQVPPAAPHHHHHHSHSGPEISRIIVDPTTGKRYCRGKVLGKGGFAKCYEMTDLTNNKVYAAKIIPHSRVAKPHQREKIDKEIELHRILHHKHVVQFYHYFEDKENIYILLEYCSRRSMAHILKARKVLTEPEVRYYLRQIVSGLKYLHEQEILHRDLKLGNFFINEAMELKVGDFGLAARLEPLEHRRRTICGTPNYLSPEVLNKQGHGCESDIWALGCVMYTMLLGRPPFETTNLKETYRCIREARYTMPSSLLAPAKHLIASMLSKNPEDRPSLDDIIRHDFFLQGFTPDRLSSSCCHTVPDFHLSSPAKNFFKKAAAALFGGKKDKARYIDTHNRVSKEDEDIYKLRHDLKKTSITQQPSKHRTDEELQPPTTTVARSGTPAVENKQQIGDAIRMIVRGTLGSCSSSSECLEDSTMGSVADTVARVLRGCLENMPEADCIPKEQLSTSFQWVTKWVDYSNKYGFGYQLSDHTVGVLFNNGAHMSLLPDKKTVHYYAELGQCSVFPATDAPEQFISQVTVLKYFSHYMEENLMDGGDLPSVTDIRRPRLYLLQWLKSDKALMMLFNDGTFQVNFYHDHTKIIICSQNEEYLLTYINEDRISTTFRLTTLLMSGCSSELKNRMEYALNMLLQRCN

Consider `CN(C)c1nc2c(Br)c(Br)c(Br)c(Br)c2[nH]1` [DMAT, 2-Dimethylamino-4,5,6,7-tetrabromo-1H-benzimidazole], for which the EC50 on PLK3 (HEK-293, Example 16, Table 21, read-out: EC50 Based on the Percent Inhibition of Synuclein Phosphorylation, Synuclein + PLK3) came out at 37.3 µM; in experiment [1] (HEK293, 293 cells, Table 18, read-out: EC50, Endogenous Kinase (293)), 33 µM; in [1] (HEK293, HEK-293, Example 16, Table 21, read-out: EC50 Based on the Percent Inhibition of Synuclein Phosphorylation, Synuclein + Vector), 55.7 µM; in [1] (HEK293, HEK-293, synuclein only, read-out: EC50 synuclein phosphorylation, endogenous kinase), 56 µM; on PLK1 (HEK-293, Example 16, Table 21, read-out: EC50 Based on the Percent Inhibition of Synuclein Phosphorylation, Synuclein + PLK1) it was 27.2 µM; in experiment [2], 20 µM. Also, the EC50 in experiment [3] is 28.5 µM; in [5] (E46K-Synuclein transgenic mouse cortical cultures, read-out: EC50, E46K-Syn TG MCC), 16.6 µM; in [5] (setting [8]), 21.6 µM; in [5] (setting [9]), 18.7 µM; on PLK2 [6] (293 cells, Table 18, read-out: EC50, Over-Expressed PLK2 (293)), 18.6 µM; at PLK2 [6] (HEK-293, Example 16, Table 21, read-out: EC50 Based on the Percent Inhibition of Synuclein Phosphorylation, Synuclein + PLK2), 13.9 µM. Moreover, the EC50 in experiment [7] (most of the cellular paradigms / cell types tested) is 16 to 33 µM. Also, the “Rank Order of Potency Based on Percent Inhibition of Synuclein Phosphorylation, Synuclein + PLK3” value at PLK3 (HEK-293, Table 22) was 2. In experiment [1] (293 cells, Table 19), the “rank order of potency, Endogenous Kinase (293)” value was determined as 3. Moreover, the “Rank Order of Potency Based on Percent Inhibition of Synuclein Phosphorylation, Synuclein + Vector” value in [1] (HEK-293, Table 22) is recorded as 2. The “Rank Order of Potency Based on Percent Inhibition of Synuclein Phosphorylation, Synuclein + PLK1” value at PLK1 (HEK-293, Table 22) was 3. Moreover, the “rank order of potency, RVM E46K-Synuclein” value in [2] is on record as 4. In [3], the “rank order of potency, RVM E46K-Synuclein caPLK2” value is 4. In addition, on PLK2 [4] (PLK2-driven synuclein phosphorylation, read-out: IC50 in the in vitro biochemical assay), the IC50 is 2.07 µM. The “rank order of potency, Straight Biochemical” value on PLK2 [4] (rank among 8 inhibitors) stood at 2. For the same compound, the “rank order of potency, E46K-Syn TG MCC” value in [5] (E46K-Synuclein transgenic mouse cortical cultures) amounted to 4. Further, the “rank order of potency, Swiss-Webster MCC” value in experiment [5] (Swiss-Webster mouse cortical cultures) stood at 4. For the same compound, in [5] (WT mouse cortical cultures), the “rank order of potency, WT-MCC” value is listed as 4. The “rank order of potency, Over-Expressed PLK2 (293)” value at PLK2 [6] (293 cells, Table 19) was found to be 4. In addition, the “Rank Order of Potency Based on Percent Inhibition of Synuclein Phosphorylation, Synuclein + PLK2” value at PLK2 [6] (HEK-293, Table 22) is 2. Besides, the “Rank Order of Potency Based on Percent Inhibition of Synuclein Phosphorylation, Synuclein + PLK4” value at PLK4 stood at 2.
`C=C(C)[C@H]1CN[C@H](C(=O)O)[C@H]1CC(=O)O` [kainic acid]: the “p-synuclein levels in brain” value in the experiment with brain p-synuclein is reported as “Increased levels”.
In the case of `CC[C@@H]1C(=O)N(C)c2cnc(Nc3ccc(C(=O)NC4CCN(C)CC4)cc3OC)nc2N1C1CCCC1` [BI 2536, 4-[[(7r)-8-cyclopentyl-7-ethyl-5,6,7,8-tetrahydro-5-methyl-6-oxo-2-pteridinyl]amino]-3-methoxy-n-(1-methyl-4-piperidinyl)-benzamide], the concentration for a half-maximal effect (EC50) in [1] (HEK293, read-out: EC50, Endogenous Kinase (293)) is 0.054 µM; in [1] (HEK293, read-out: EC50 Based on the Percent Inhibition of Synuclein Phosphorylation, Synuclein + Vector), 0.099 µM; in [1] (HEK293, read-out: EC50 synuclein phosphorylation, endogenous kinase) it was 0.099 µM; in experiment [5] (Mus musculus, read-out: EC50, E46K-Syn TG MCC), under 0.1 µM; in experiment [5] (setting [8]), 0.092 µM; in [5] (setting [9]) it was under 0.1 µM. In addition, in experiment [7] (most EC50 values, all cellular paradigms), the EC50 is at most 0.1 µM. Moreover, in the experiment on panel of 260 kinases, the “inhibition in panel of 260 kinases” value is “very potent in inhibiting PLK2 and PLK3”.
